The values below come from patent US10351570B2, “Compounds and uses thereof” (Kala Pharmaceuticals, Inc., priority 2013, dated 2019).

The nature of data set [1]: Draize-Ocular Irritation assessment. It is filed as in vivo, Dutch-belted rabbits. To be noted: topical 0.5% solution, 50 μL BID 5 days. The procedure: (§1) In this example, the formulation consisted of 0.5% I-2, 0.5% F127, in 20 mM citrate buffer pH 6.0 and NaCl (added to produce isotonic formulation).
(§2) The portion of the retina and choroid collected and analyzed was an 8-mm round punch where the macula is located in humans.

Data set [2] can be described thus: Nanoparticle mobility in human cervicovaginal mucus (dark field microscopy). To be noted: low pH of CVM. The procedure:
In order to determine whether the generated nanoparticles have reduced interactions with mucins and are therefore able to move within mucus without becoming trapped, particles were incubated with human cervicovaginal mucus (CVM) and observed via dark field microscopy. In a typical experiment, 51 μL of the nanoparticle suspension was added to 20 μl of CVM. Observations were made in a minimum of three distinct and randomly selected areas of the CVM sample. Control particles with known behavior were used to qualify the CVM sample as appropriate for the assay.

The nature of data set [3]: Physical and chemical stability of I-2 solutions at room temperature. In kind it is physicochemical. To be noted: F127 (0.5%), 20 mM Tris (pH 8); precipitation. The procedure:
Solutions of I-2 were formulated with F127 or Tween 80, and under a range of pH values. Briefly, I-2 was first completely solubilized using an acidic solution (0.1 N HCl) at a high concentration of […]. The final formulation was diluted to a solution consisting of 0.5% (w/v) I-2 into buffered solution containing F127 or Tween 80 as described in Table 5. Following dilution, the pH of the formulations was measured using pH indicator strips (PEHANON) and confirmed to be within expected range (±0.5 units of target pH).
Physical and chemical stability of the solutions at room temperature (20-25° C.) were assessed after 7-10 days (tfinal). Physical instability in a solution can manifest as the precipitation and sedimentation of the drug of interest and excipients over time. To assess physical stability, the formulations at tfinal were first filtered through a 300 kDa modified polyethersulfone filter membrane (Nanosep) to remove any precipitate in the solution. The concentration of I-2 in the filtrates was then measured and compared to that at t=0. The purity of I-2 in the unfiltered solution was also evaluated at tfinal, to further confirm chemical stability. This parameter is defined by the area under the signal peak that is attributed to compound I-2 as a percentage of all peaks reported by in the sample by HPLC (% peak area).

A short description of data set [4]: PK study after topical ocular administration of compound I-2 solution. It is filed as in vivo, Dutch-belted rabbits. Conditions: Dutch-belted, rabbit, topical or ocular, 50 μL of 0.5% solution, topical 0.5% solution, 50 μL BID 5 days; for AUC(0-t): read-out: AUC0-12 hr. The protocol: as §1, §2
The nature of data set [5]: Milling with Pluronic F127 into mucus penetrating particles; particle size by dynamic light scattering. It is filed as physicochemical. To be noted: formulated as MPP, milled with Pluronic F127 in DPBS; for Particle Size: dynamic light scattering. From the text:
Compounds of the present invention synthesized in accordance with the preceding Examples were formulated as mucus penetrating particles (MPP). Specifically, compounds I-2, compound I-5, and compound I-6 were each milled in the presence of Pluronic F127 (F127) to determine whether F127 1) aids particle size reduction to several hundreds of nanometers and 2) physically (non-covalently) coats the surface of generated nanoparticles with a mucoinert coating that would minimize particle interactions with mucus constituents and prevent mucus adhesion.
A milling procedure was employed in which an aqueous dispersion containing coarse drug particles and Pluronic F127 (F127) was milled with grinding medium until particle size was reduced below 400 nm as measured by dynamic light scattering. Table 4 lists the size of particles and polydispersity index (a measure of the width of the particle size distribution) generated using this technique. In this example suspensions were buffered using DPBS (Dulbecco's Phosphate-Buffered Saline) which yields a suspension that is both isotonic and has a physiologically relevant pH.

SMILES strings stand for the structures. Like-named read-outs stand apart in the source and are kept apart here.

With `Cc1cc(C(=O)Nc2cc(Oc3ccc4nc(NC(=O)CN5CC[C@H](N(C)C)C5)cn4n3)ccc2C)n(C)n1` [Compound I-2], the “Draize-Ocular Irritation” value in data set [1] is given as “no irritation”. The “solubility in CVM” value in data set [2] is reported as “soluble”. Also, the “physical stability of solution” value in data set [3] is reported as “major physical instability”. Besides, in data set [4] (Choroid (8-mm punch)), the Cmax came to 1790 nM, the Tmax was 2 h and the AUC(0-t) is 12.5 µM·h. Further, in data set [4] (Plasma), the maximum concentration (Cmax) is 5.96 nM, the Tmax turned out to be 0.5 h and the AUC(0-t) was 0.0256 µM·h. Besides, the half-life in data set [4] (Plasma, read-out: t½ (converted)) is 3.63 h. Also, in data set [4] (Retina (8-mm punch)), the Cmax worked out at 218 nM, the Tmax is 0.5 h and the AUC(0-t) was 2.06 µM·h.

For the molecule `Cc1cc(C(=O)Nc2cc(Oc3ccc4nc(NC(=O)NC5COC5)cn4n3)ccc2C)n(C)n1` [Compound I-5], in data set [5], the “Polydispersity Index (PDI)” value is recorded as 0.160 and the “Particle Size” value came to 276 nm.

In the case of `Cc1ccc(Oc2ccc3nc(NC(=O)CC4COC4)cn3n2)cc1NC(=O)c1cccc(F)c1` [Compound I-6], in data set [5], the “Polydispersity Index (PDI)” value amounted to 0.206 and the “Particle Size” value was 245 nm.
